The source of these data is US20230295137A1, “COVALENT EGFR INHIBITORS AND METHODS OF USE THEREOF” (DANA-FARBER CANCER INSTITUTE, INC., priority 2020, published 2023).

SMILES strings stand for the structures.

Experiment [1] has as its system EGFR mutant L858R Ba/F3 cells. As to the kind of experiment: Ba/F3 cell proliferation (Cell Titer Glo), EGFR L858R. It counts as cell-based, murine. The following applies: Mus musculus, BaF3, Ba/F3 cells with EGFR L858R, 72 hours exposure, read-out: L BaF3. From the text: (§1) The selectivity between wild-type EGER and EGFR containing one or more mutations as described herein can also be measured using cellular proliferation assays where cell proliferation is dependent on kinase activity. For example, murine Ba/F3 cells transfected with a suitable version of wild-type EGFR (such as VIII; containing a WT EGFR kinase domain), or Ba/F3 cells transfected with L858R/T790M, Del/T790M/L718Q, L858R/T790M/L718Q, L858R/T790M/C797S, Del/T790M/C797S, L858R/T790M/I941R, or Exon 19 deletion/T790M can be used.
(§2) The EGFR mutant L858R Ba/F3 cells have been previously described (Zhou, W., et al. Nature 482, 2009, 1070-1074). […]
(§3) Growth and inhibition of growth was assessed by the Cell Titer Glo assay (Promega, Madison, WI) and was performed according to the manufacturer's instructions. The Cell Titer Glo assay is a luminescence-based method used to determine the number of viable cells based on quantitation of the ATP present, which is directly proportional to the amount of metabolically active cells present. Ba/F3 cells of different EGFR genotypes were exposed to compounds for 72 hours and the number of cells used per experiment was determined empirically as has been previously established (Zhou, et al., Nature 2009). […]
On the technique in general: In ATP-based viability assays light output follows the ATP content of the culture.

Experiment [2] has as its system EGFR L858R/C797S Ba/F3 cells. Description: Ba/F3 cell proliferation (Cell Titer Glo), EGFR L858R/C797S. Type of experiment: cell-based, murine. To be noted: Mus musculus, BaF3, Ba/F3 cells with EGFR L858R/C797S, 72 hours exposure, read-out: L/C797S.
Source text: as §1, §2, §3

On to `C=CC(=O)Nc1cc(C(=O)Nc2nc3cccc(C)c3n2[C@@H]2CCCCN(C(C)=O)C2)cs1` [Compound 002], for which the EC50 was 110 nM in experiment [1] and 430 nM in experiment [2].

In the case of `C=CC(=O)Nc1csc(C(=O)Nc2nc3cccc(C)c3n2[C@@H]2CCCCN(C(C)=O)C2)c1` [Compound 009], the EC50 in experiment [1] stood at 62 nM; in experiment [2] it was 173 nM.
